Tests used:
Assay type in all cases: functional
MDA-MB-468 = test: Growth inhibition of human MDA-MB-468 cells assessed as cell growth at 10 uM incubated for 48 hrs by sulforhodamine B assay relative to control; conditions: MDA-MB-468, 48 h, read-out: Activity
NCI/ADR-RES = test: Growth inhibition of human NCI/ADR-RES cells assessed as cell growth at 10 uM incubated for 48 hrs by sulforhodamine B assay relative to control; conditions: read-out: Activity
UO-31 = test: Growth inhibition of human UO31 cells assessed as cell growth at 10 uM incubated for 48 hrs by sulforhodamine B assay relative to control; conditions: UO-31, 48 h, read-out: Activity
PC-3 = test: Growth inhibition of human PC3 cells assessed as cell growth at 10 uM incubated for 48 hrs by sulforhodamine B assay relative to control; conditions: PC-3, 48 h, read-out: Activity
SR = test: Growth inhibition of human SR cells assessed as cell growth at 10 uM incubated for 48 hrs by sulforhodamine B assay relative to control; conditions: read-out: Activity
SN12C = test: Growth inhibition of human SN12C cells assessed as cell growth at 10 uM incubated for 48 hrs by sulforhodamine B assay relative to control; conditions: read-out: Activity
HCT-116 = test: Growth inhibition of human HCT116 cells assessed as cell growth at 10 uM incubated for 48 hrs by sulforhodamine B assay relative to control; conditions: HCT-116, 48 h, read-out: Activity
NCI-H522 = test: Growth inhibition of human NCI-H522 cells assessed as cell growth at 10 uM incubated for 48 hrs by sulforhodamine B assay relative to control; conditions: NCI-H522, 48 h, read-out: Activity
HOP-92 = test: Growth inhibition of human HOP92 cells assessed as cell growth at 10 uM incubated for 48 hrs by sulforhodamine B assay relative to control; conditions: HOP-92, 48 h, read-out: Activity
UACC-62 = test: Growth inhibition of human UACC62 cells assessed as cell growth at 10 uM incubated for 48 hrs by sulforhodamine B assay relative to control; conditions: UACC-62, 48 h, read-out: Activity
M14 = test: Growth inhibition of human M14 cells assessed as cell growth at 10 uM incubated for 48 hrs by sulforhodamine B assay relative to control; conditions: M14, 48 h, read-out: Activity
HL-60(TB) = test: Growth inhibition of human HL-60(TB) cells assessed as cell growth at 10 uM incubated for 48 hrs by sulforhodamine B assay relative to control; conditions: HL-60, 48 h, read-out: Activity
OVCAR-4 = test: Growth inhibition of human OVCAR4 cells assessed as cell growth at 10 uM incubated for 48 hrs by sulforhodamine B assay relative to control; conditions: OVCAR-4, 48 h, read-out: Activity
Malme-3M = test: Growth inhibition of human MALME-3M cells assessed as cell growth at 10 uM incubated for 48 hrs by sulforhodamine B assay relative to control; conditions: read-out: Activity
MDA-MB-435 = test: Growth inhibition of human MDA-MB-435 cells assessed as cell growth at 10 uM incubated for 48 hrs by sulforhodamine B assay relative to control; conditions: MDA-MB-435, 48 h, read-out: Activity
T47D = test: Growth inhibition of human T47D cells assessed as cell growth at 10 uM incubated for 48 hrs by sulforhodamine B assay relative to control; conditions: read-out: Activity
NCI-H322M = test: Growth inhibition of human NCI-H322M cells assessed as cell growth at 10 uM incubated for 48 hrs by sulforhodamine B assay relative to control; conditions: read-out: Activity
SNB-19 = test: Growth inhibition of human SNB19 cells assessed as cell growth at 10 uM incubated for 48 hrs by sulforhodamine B assay relative to control; conditions: SNB-19, 48 h, read-out: Activity
OVCAR-3 = test: Growth inhibition of human OVCAR3 cells assessed as cell growth at 10 uM incubated for 48 hrs by sulforhodamine B assay relative to control; conditions: OVCAR-3, 48 h, read-out: Activity
OVCAR-8 = test: Growth inhibition of human OVCAR8 cells assessed as cell growth at 10 uM incubated for 48 hrs by sulforhodamine B assay relative to control; conditions: OVCAR-8, 48 h, read-out: Activity
LOX IMVI = test: Growth inhibition of human LOXIMVI cells assessed as cell growth at 10 uM incubated for 48 hrs by sulforhodamine B assay relative to control; conditions: read-out: Activity
MOLT-4 = test: Growth inhibition of human MOLT4 cells assessed as cell growth at 10 uM incubated for 48 hrs by sulforhodamine B assay relative to control; conditions: MOLT-4, 48 h, read-out: Activity
HCT-15 = test: Growth inhibition of human HCT15 cells assessed as cell growth at 10 uM incubated for 48 hrs by sulforhodamine B assay relative to control; conditions: HCT-15, 48 h, read-out: Activity
SW-620 = test: Growth inhibition of human SW620 cells assessed as cell growth at 10 uM incubated for 48 hrs by sulforhodamine B assay relative to control; conditions: SW-620, 48 h, read-out: Activity
SK-MEL-2 = test: Growth inhibition of human SK-MEL-2 cells assessed as cell growth at 10 uM incubated for 48 hrs by sulforhodamine B assay relative to control; conditions: SK-MEL-2, 48 h, read-out: Activity
SF-539 = test: Growth inhibition of human SF539 cells assessed as cell growth at 10 uM incubated for 48 hrs by sulforhodamine B assay relative to control; conditions: SF-539, 48 h, read-out: Activity
ACHN = test: Growth inhibition of human ACHN cells assessed as cell growth at 10 uM incubated for 48 hrs by sulforhodamine B assay relative to control; conditions: read-out: Activity

SMILES | growth at 10 µM (MDA-MB-468) | growth at 10 µM (NCI/ADR-RES) | growth at 10 µM (UO-31) | growth at 10 µM (PC-3) | growth at 10 µM (SN12C) | growth at 10 µM (HCT-116) | growth at 10 µM (NCI-H522) | growth at 10 µM (HOP-92) | growth at 10 µM (UACC-62) | growth at 10 µM (M14) | growth at 10 µM (OVCAR-4) | growth at 10 µM (Malme-3M) | growth at 10 µM (MDA-MB-435) | growth at 10 µM (T47D) | growth at 10 µM (NCI-H322M) | growth at 10 µM (SNB-19) | growth at 10 µM (OVCAR-3) | growth at 10 µM (OVCAR-8) | growth at 10 µM (LOX IMVI) | growth at 10 µM (SW-620) | further results
Cc1cccc(Nc2ncnc3oc(C)c(C(=O)NCCN4CCOCC4)c23)c1 | 89.4% | 94.7% | 75.6% | 101% | 94.3% | 117% | 89.9% | 97.6% | 84.6% | 99.8% | 110% | 97.2% | 101% | 106% | 101% | 91% | 102% | 109% | 93.2% | 98.9% | growth at 10 µM (SR): 126%; growth at 10 µM (HL-60(TB)): 92.4%; growth at 10 µM (MOLT-4): 111%; growth at 10 µM (HCT-15): 94.9%; growth at 10 µM (SK-MEL-2): 106%; growth at 10 µM (SF-539): 95.4%; growth at 10 µM (ACHN): 93.6%
CCOC(=O)c1c(C)oc2ncnc(Nc3ccc(F)c(Cl)c3)c12 | 112% | 107% | 88.5% | 85.6% | 92.2% | 103% | 74.6% | 72.1% | 94.9% | 110% | 118% | 114% | 114% | 83.8% | 101% | 100% | 116% | 100% | 103% | 101% | growth at 10 µM (SR): 96.8%; growth at 10 µM (HL-60(TB)): 101%; growth at 10 µM (MOLT-4): 99.2%; growth at 10 µM (HCT-15): 112%; growth at 10 µM (SK-MEL-2): 95.5%; growth at 10 µM (SF-539): 104%; growth at 10 µM (ACHN): 112%
CCOC(=O)c1c(C)oc2ncnc(Nc3ccc(F)cc3)c12 | 103% | 101% | 92.4% | 111% | 92.9% | 98.9% | 92.9% | 90.8% | 88.6% | 103% | 99.1% | 95.4% | 101% | 99.6% | 101% | 91.4% | 104% | 106% | 99.5% | 94.9% | growth at 10 µM (SK-MEL-2): 103%; growth at 10 µM (SF-539): 93.6%; growth at 10 µM (ACHN): 99%
Cc1oc2ncnc(Nc3cccc(Cl)c3)c2c1CO | 69.1% | 86% | 56.9% | 71.3% | 88.6% | 81.6% | 89.8% | 90.5% | 76.4% | 94% | 92.5% | 88.1% | 93.1% | 78.8% | 95% | 87.3% | 102% | 108% | 98.4% | 93.2% | growth at 10 µM (SR): 62.2%; growth at 10 µM (HL-60(TB)): 54%; growth at 10 µM (MOLT-4): 86.2%; growth at 10 µM (HCT-15): 67.3%; growth at 10 µM (SK-MEL-2): 98.1%; growth at 10 µM (SF-539): 91.6%; growth at 10 µM (ACHN): 76.7%
Cc1oc2ncnc(Nc3cccc(F)c3)c2c1C(=O)NCCO | 106% | 114% | 96.5% | 111% | 98.7% | 105% | 88.4% | 101% | 92.2% | 109% | 108% | 118% | 108% | 95.4% | 104% | 104% | 107% | 105% | 100% | 103% | growth at 10 µM (SK-MEL-2): 103%; growth at 10 µM (SF-539): 90.9%; growth at 10 µM (ACHN): 103%
CCCNC(=O)c1c(C)oc2ncnc(Nc3cccc(Cl)c3)c12 | 81.7% | 94.1% | 72.4% | 81.9% | 99.4% | 105% | 54.9% | 57.2% | 83.4% | 115% | 101% | 121% | 103% | 53.5% | 103% | 106% | 106% | 96.8% | 96.4% | 106% | growth at 10 µM (SR): 86%; growth at 10 µM (HL-60(TB)): 96.3%; growth at 10 µM (MOLT-4): 95.4%; growth at 10 µM (HCT-15): 101%; growth at 10 µM (SK-MEL-2): 85.6%; growth at 10 µM (SF-539): 99.1%; growth at 10 µM (ACHN): 107%
